# How the values were obtained:
# [1] = system: MDA-MB-231; assay: Cytotoxicity against human MDA-MB-231 cells after 72 hrs by MTT assay; assay type: cell-based; conditions: MDA-MB-231, 72 h
# [2] = Binding affinity to zinc assessed as dissociation constant for compound-metal complex
# [3] = target: Beta-lactamase VIM-2 (Pseudomonas aeruginosa) (UniProt Q9K2N0); assay: Inhibition of beta-lactamase VIM-2 in Pseudomonas aeruginosa assessed as potentiation of meropenem-induced antibacterial activity by measuring meropenem MIC at 125 uM after 20 hrs by broth microdilution assay (meropenem alone = 32 to 64 mg/L)
# [4] = Cytotoxicity against human MiaPaCa cells after 72 hrs by MTT assay; assay type: cell-based; conditions: MIA PaCa-2, 72 h
# [5] = system: COLO357; assay: Cytotoxicity against human Colo-357 cells after 72 hrs by MTT assay; assay type: cell-based; conditions: COLO357, 72 h
# [6] = target: Metallo-beta-lactamase type 2 (Klebsiella pneumoniae) (UniProt C7C422); assay: Inhibition of NDM1 in Pseudomonas aeruginosa assessed as potentiation of meropenem-induced antibacterial activity by measuring meropenem MIC at 125 uM after 20 hrs by broth microdilution assay (meropenem alone = 32 to 64 mg/L)
# [7] = target: Beta-lactamase VIM-2 (Pseudomonas aeruginosa) (UniProt Q9K2N0); assay: Inhibition of beta-lactamase VIM-2 in Pseudomonas aeruginosa assessed as potentiation of meropenem-induced antibacterial activity by measuring meropenem MIC at 50 uM after 20 hrs by broth microdilution assay (meropenem alone = 32 to 64 mg/L)
# [8] = target: Metallo-beta-lactamase type 2 (Klebsiella pneumoniae) (UniProt C7C422); assay: Inhibition of NDM1 in Pseudomonas aeruginosa assessed as potentiation of meropenem-induced antibacterial activity by measuring meropenem MIC at 50 uM after 20 hrs by broth microdilution assay (meropenem alone = 32 to 64 mg/L)
# [9] = target: Beta-lactamase VIM-2 (Pseudomonas aeruginosa) (UniProt Q9K2N0); assay: Inhibition of beta-lactamase VIM-2 in Pseudomonas aeruginosa assessed as potentiation of meropenem-induced antibacterial activity by measuring meropenem MIC at 16 uM after 20 hrs by broth microdilution assay (meropenem alone = 32 to 64 mg/L)
# [10] = target: Beta-lactamase VIM-2 (Pseudomonas aeruginosa) (UniProt Q9K2N0); assay: Inhibition of beta-lactamase VIM-2 in Pseudomonas aeruginosa assessed as potentiation of meropenem-induced antibacterial activity by measuring meropenem MIC at 31 uM after 20 hrs by broth microdilution assay (meropenem alone = 32 to 64 mg/L)
# [11] = target: Metallo-beta-lactamase type 2 (Klebsiella pneumoniae) (UniProt C7C422); assay: Inhibition of NDM1 in Pseudomonas aeruginosa assessed as potentiation of meropenem-induced antibacterial activity by measuring meropenem MIC at 31 uM after 20 hrs by broth microdilution assay (meropenem alone = 32 to 64 mg/L)
# [12] = target: Metallo-beta-lactamase type 2 (Klebsiella pneumoniae) (UniProt C7C422); assay: Inhibition of NDM1 in Pseudomonas aeruginosa assessed as potentiation of meropenem-induced antibacterial activity by measuring meropenem MIC at 16 uM after 20 hrs by broth microdilution assay (meropenem alone = 32 to 64 mg/L)
# [13] = system: HepG2; assay: Cytotoxicity against human HepG2 cells after 72 hrs by MTT assay; assay type: cell-based; conditions: HepG2, 72 h
# Sequence of Metallo-beta-lactamase type 2 (Klebsiella pneumoniae) (C7C422 whole entry): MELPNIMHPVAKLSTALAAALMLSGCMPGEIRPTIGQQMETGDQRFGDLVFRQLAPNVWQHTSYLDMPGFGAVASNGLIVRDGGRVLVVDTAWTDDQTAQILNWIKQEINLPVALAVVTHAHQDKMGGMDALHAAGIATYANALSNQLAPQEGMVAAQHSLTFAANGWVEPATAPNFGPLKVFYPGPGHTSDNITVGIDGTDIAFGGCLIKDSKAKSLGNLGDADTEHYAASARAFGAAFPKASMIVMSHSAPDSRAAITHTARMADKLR
SMILES,pKd [2],MIC [3],MIC [6],MIC [7],MIC [8],MIC [9],MIC [10],MIC [11],MIC [12],IC50 [1],IC50 [4],IC50 [5],IC50 [13]
COC(=O)[C@@H](C)NC(=O)[C@@H](C)NC(=O)CCC(=O)NCCc1ccc(NC(=O)CN(Cc2ccccn2)Cc2ccccn2)cc1,7.6,32 µg/mL,8 to 16 µg/mL,–,–,–,–,–,–,141 µM,45 µM,152 µM,–
Cl.NCC(=O)NCC(=O)NCCc1ccc(NC(=O)CN(CCN(Cc2ccccn2)Cc2ccccn2)Cc2ccccn2)cc1,12.3,–,–,–,–,–,–,–,–,15 µM,21 µM,24 µM,–
NCC(=O)NCC(=O)NCCc1ccc(-n2cc(CN(Cc3ccccn3)Cc3ccccn3)nn2)cc1,–,–,–,8 µg/mL,4 µg/mL,–,–,–,–,–,–,–,–
C[C@H](N)C(=O)N[C@@H](C)C(=O)NCCc1ccc(NC(=O)CN(CCN(Cc2ccccn2)Cc2ccccn2)Cc2ccccn2)cc1.Cl,12.3,2 µg/mL,0.125 µg/mL,–,–,32 µg/mL,4 µg/mL,0.125 µg/mL,16 µg/mL,5.1 µM,5.5 µM,6.8 µM,–
CCOC(=O)Cc1ccc(-n2cc(CN(Cc3ccccn3)Cc3ccccn3)nn2)cc1,–,–,–,16 µg/mL,4 µg/mL,–,–,–,–,–,–,–,–
COC(=O)[C@@H](C)NC(=O)[C@@H](C)NC(=O)Cc1ccc(-n2cc(CN(Cc3ccccn3)Cc3ccccn3)nn2)cc1,8.9,–,–,8 µg/mL,4 µg/mL,–,–,–,–,125 µM,119 µM,105 µM,–
COC(=O)[C@@H](C)NC(=O)[C@H](CCCCNC(=O)Cn1cc(CN(Cc2ccccn2)Cc2ccccn2)nn1)NC(C)=O,–,–,–,16 µg/mL,8 µg/mL,–,–,–,–,–,–,–,–
COC(=O)[C@@H](C)NC(=O)[C@@H](C)NC(=O)Cc1ccc(NC(=O)CN(CCN(Cc2ccccn2)Cc2ccccn2)Cc2ccccn2)cc1,12.3,1 µg/mL,0.125 µg/mL,–,–,32 µg/mL,4 µg/mL,0.125 µg/mL,16 µg/mL,4.1 µM,5.9 µM,5.4 µM,–
COC(=O)[C@@H](C)NC(=O)[C@H](CCCCNC(C)=O)NC(=O)Cn1cc(CN(Cc2ccccn2)Cc2ccccn2)nn1,–,–,–,32 µg/mL,8 µg/mL,–,–,–,–,–,–,–,–
COC(=O)CNC(=O)CNC(=O)Cc1ccc(NC(=O)CN(CCN(Cc2ccccn2)Cc2ccccn2)Cc2ccccn2)cc1,12.3,1 µg/mL,0.125 µg/mL,–,–,32 µg/mL,2 µg/mL,2 µg/mL,16 µg/mL,7.8 µM,12 µM,12 µM,–
COC(=O)[C@@H](CCCCn1cc(CN(Cc2ccccn2)Cc2ccccn2)nn1)NC(=O)[C@@H](C)NC(C)=O,8.9,4 µg/mL,1 µg/mL,–,–,–,–,–,–,131 µM,128 µM,101 µM,–
OC1O[C@H](Cn2cc(CN(CCN(Cc3ccccn3)Cc3ccccn3)Cc3ccccn3)nn2)[C@H](O)[C@H](O)[C@H]1O (some centres undefined),–,–,–,–,–,32 µg/mL,2 µg/mL,0.125 µg/mL,8 µg/mL,–,–,–,1.7 µM
COC(=O)[C@H](C)NC(=O)[C@H](C)NC(=O)Cc1ccc(NC(=O)CN(CCN(Cc2ccccn2)Cc2ccccn2)Cc2ccccn2)cc1,–,1 µg/mL,0.125 µg/mL,–,–,32 µg/mL,1 µg/mL,0.125 µg/mL,8 µg/mL,–,–,–,–
C[C@@H](N)C(=O)N[C@H](C)C(=O)NCCc1ccc(NC(=O)CN(Cc2ccccn2)Cc2ccccn2)cc1.Cl,7.6,16 µg/mL,8 µg/mL,–,–,–,–,–,–,127 µM,118 µM,21 µM,–
C[C@@H](N)C(=O)N[C@H](C)C(=O)NCCc1ccc(-n2cc(CN(Cc3ccccn3)Cc3ccccn3)nn2)cc1,–,–,–,4 µg/mL,4 µg/mL,–,–,–,–,–,–,–,–
c1ccc(CNCCN(Cc2ccccn2)Cc2ccccn2)nc1,–,0.5 µg/mL,< 0.25 µg/mL,–,–,32 µg/mL,1 µg/mL,0.125 µg/mL,8 µg/mL,–,–,–,–

# Second part, led by results:
pKd [2],MIC [3],MIC [6],MIC [7],MIC [8],MIC [9],MIC [10],MIC [11],MIC [12],SMILES,IC50 [1],IC50 [4],IC50 [5],IC50 [13]
12.3,2 µg/mL,0.125 µg/mL,–,–,32 µg/mL,2 µg/mL,0.125 µg/mL,8 µg/mL,C[C@@H](N)C(=O)N[C@H](C)C(=O)NCCc1ccc(NC(=O)CN(CCN(Cc2ccccn2)Cc2ccccn2)Cc2ccccn2)cc1.Cl,4.9 µM,4.8 µM,6.8 µM,13.6 µM
8.9,2 µg/mL,0.5 µg/mL,–,–,32 µg/mL,16 µg/mL,8 µg/mL,16 µg/mL,CC(=O)NCCCC[C@H](NC(=O)Cn1cc(CN(Cc2ccccn2)Cc2ccccn2)nn1)C(=O)NCB(O)O,101 µM,66 µM,112 µM,–
8.9,2 µg/mL,0.5 µg/mL,–,–,32 µg/mL,32 µg/mL,8 µg/mL,16 µg/mL,CC(=O)N[C@@H](CCCCNC(=O)Cn1cc(CN(Cc2ccccn2)Cc2ccccn2)nn1)C(=O)NCB(O)O,128 µM,119 µM,82 µM,–
8.9,–,–,–,–,–,–,–,–,COC(=O)[C@@H](CCCCNC(=O)Cn1cc(CN(Cc2ccccn2)Cc2ccccn2)nn1)NC(=O)[C@@H](C)N,127 µM,106 µM,114 µM,–
8.9,4 µg/mL,2 µg/mL,–,–,–,–,–,–,COC(=O)CNC(=O)CNC(=O)Cn1cc(CN(Cc2ccccn2)Cc2ccccn2)nn1,168 µM,176 µM,137 µM,–
–,–,–,16 µg/mL,4 µg/mL,–,–,–,–,COC(=O)CNC(=O)[C@H](CCCCNC(=O)Cn1cc(CN(Cc2ccccn2)Cc2ccccn2)nn1)NC(C)=O,–,–,–,–
8.9,2 µg/mL,< 0.5 µg/mL,–,–,32 µg/mL,64 µg/mL,16 µg/mL,32 µg/mL,COC(=O)[C@@H](C)NC(=O)[C@@H](C)NC(=O)Cn1cc(CN(Cc2ccccn2)Cc2ccccn2)nn1,152 µM,116 µM,133 µM,–
8.9,8 µg/mL,2 µg/mL,–,–,32 µg/mL,16 µg/mL,8 µg/mL,16 µg/mL,COC(=O)[C@H](C)NC(=O)[C@H](C)NC(=O)Cn1cc(CN(Cc2ccccn2)Cc2ccccn2)nn1,157 µM,105 µM,96 µM,–
11.8,–,–,1 µg/mL,0.125 µg/mL,32 µg/mL,1 to 2 µg/mL,0.125 µg/mL,16 µg/mL,COC(=O)[C@@H](C)NC(=O)[C@@H](C)NC(=O)CN(C)CCN(Cc1ccccn1)Cc1ccccn1,4.5 µM,5.1 µM,4.3 µM,6.83 µM
–,–,–,8 µg/mL,4 µg/mL,–,–,–,–,COC(=O)CNC(=O)CNC(=O)Cc1ccc(-n2cc(CN(Cc3ccccn3)Cc3ccccn3)nn2)cc1,–,–,–,–
7.6,16 µg/mL,8 to 16 µg/mL,–,–,–,–,–,–,COC(=O)[C@@H](C)NC(=O)[C@@H](C)NC(=O)CN(Cc1ccccn1)Cc1ccccn1,184 µM,98 µM,90 µM,–
–,–,–,–,–,32 µg/mL,1 µg/mL,0.25 µg/mL,32 µg/mL,CN(CCN(Cc1ccccn1)Cc1ccccn1)CC(=O)N(C)C[C@H](O)[C@@H](O)[C@H](O)[C@H](O)CO,–,–,–,118 µM
–,–,–,32 µg/mL,8 µg/mL,–,–,–,–,COC(=O)CNC(=O)[C@H](CCCCNC(C)=O)NC(=O)Cn1cc(CN(Cc2ccccn2)Cc2ccccn2)nn1,–,–,–,–

# From ChEMBL document CHEMBL4480377, “Synthesis and biological evaluation of zinc chelating compounds as metallo-β-lactamase inhibitors” (Medchemcomm, 2019)
